Each block holds one compound with its values, some of them ahead of it.
Assays:
[1] = Inclusion efficiency for bendamustine in VPG (ion exchanger separation of free drug); format: physicochemical; conditions: direct inclusion in VPG by speed mixing, 3540 rpm 30 min; ± SD
Method: (§1) Within the context of the present invention, the “enclosure efficiency” is the ratio (percentage) of the amount of the measured substance (e.g., of an active substance) which is included in the lipid-based nanoparticles, associated to the nanoparticles or incorporated into the nanoparticles, to the total amount of the respective substance used for the formulation.
Into a 25 ml injection bottle (outer diameter: 36 mm), 1.0 g of the mixture of hydrogenated egg phosphatidylcholine and cholesterol (55/45 mole %) existing as a solid solution as well as 1.0 g of glass beads (diameter 1 mm) was weighed under sterile conditions. The bottle was flange-sealed. Through the septum, 1.5 ml of a Bendamustin® hydrochloride solution (containing 9.09 mg of bendamustine/ml; the solution was prepared by reconstitution from Bendamustin of Ribosepharm; thus, 0.9% NaCl solution was injected into the medicine bottle with the lyophilized medicament) was added. […] Samples of the VPGs containing bendamustine were taken, and the inclusion efficiency for bendamustine was determined to be 40.6±3.08% (SD) (separation of the free bendamustine: by ion exchanger, Moog et al., Cancer Chem Pharmacol 49: 356 (2002), bendamustine analytics: Maas, B. et al., Pharmazie 49: 775-777 (1994)). The mean size of the vesicles was determined by PCS to be 62.5±3.5 nm (SD) (n: 8).

[2] = Inclusion efficiency for gemcitabine in VPG; format: physicochemical; conditions: for Inclusion efficiency: then passive loading 60° C. 2 hours
Method: as §1
Into a 25 ml injection bottle (outer diameter: 36 mm), 1.48 g of the mixture of hydrogenated egg phosphatidylcholine and cholesterol (55/45 mole %) existing as a solid solution as well as 3 g of glass beads (diameter 1 mm) was weighed under sterile conditions. The bottle was flange-sealed. Through the septum, 500 μl of a Gemzar® solution (containing 38.02 mg of gemcitabine/ml; Gemzar® is the name of the gemcitabine-containing medicament of the company Lilly, one injection bottle contains 200 mg of gemcitabine (lyophilized) and is reconstituted with 5 ml of 0.9% NaCl) as well as 2.22 g of 5% mannitol solution was added. The mixture was subjected to speed mixing at 3540 rpm for 20 minutes to form gemcitabine-containing VPG.
Into a 25 ml injection bottle, 3.7 g of VPG (660 mM lipid, mixture of hydrogenated egg phosphatidylcholine and cholesterol (55/45 mole %), existing as a solid solution) was charged, and the bottle was centrifuged briefly, so that a uniformly thick layer of VPG formed at the bottom of the vessel. To this layer, 500 μl of a Gemzar® solution was added (contains 38.02 mg of gemcitabine/ml; Gemzar® is the name of the gemcitabine-containing medicament of the company Lilly, one injection bottle contains 200 mg of gemcitabine (lyophilized) and is reconstituted with 5.0 ml of 0.9% NaCl). […]
Subsequently, the VPG-gemcitabine mixture as well as a comparative sample in which gemcitabine was incorporated into the VPG by two shaking steps for 10 and 5 minutes, respectively, with an incubation break for 1 hour between, incubated at 60° C. for 2 hours for passive loading, the VPG was subsequently redispersed, and the inclusion efficiency for gemcitabine was determined.

[3] = empty VPG by high-pressure homogenization, gemcitabine incorporated by passive loading (EP 1 087 752); cited from earlier work
[4] = Inclusion efficiency for trypan blue in liposomes (absorption spectroscopy of supernatant); format: physicochemical; conditions: EPC3/cholesterol 55/45; 3540 rpm 10 min
Method: Within the context of the present invention, the “enclosure efficiency” is the ratio (percentage) of the amount of the measured substance (e.g., of an active substance) which is included in the lipid-based nanoparticles, associated to the nanoparticles or incorporated into the nanoparticles, to the total amount of the respective substance used for the formulation. Into two glass vials (diameter 10 mm), 100 mg each of glass beads (diameter 1 mm) and 50 mg each of the mixture of hydrogenated egg phosphatidylcholine and cholesterol (55/45 mole %) existing as a solid solution was weighed. Into one vial, 75 μl of a trypan blue solution (1000 μl of commercially available trypan blue solution (0.4%) plus 30 ml of 25% ammonia solution) was pipetted. Into the second vial, 75 μl of 0.9% NaCl solution was added. The closed vials were subjected to speed mixing at 3540 rpm for 10 minutes each. The liposome gel loaded with trypan blue solution was redispersed with 250 μl of NaCl solution. The liposome gel prepared with saline only was redispersed with 175 μl of NaCl solution plus 75 μl of trypan blue solution. […] In the supernatant, the trypan blue concentration was subsequently determined by absorption spectroscopy, and the inclusion efficiency was calculated. […]

[5] = Mean size of liposomes / lipid-based nanoparticles by photon correlation spectroscopy (PCS); format: physicochemical
[6] = Inclusion efficiency for RNA-Cy3 in liposomes (fluorescence spectroscopy of supernatant); format: physicochemical; conditions: 1 μM RNA-Cy3, 3540 rpm 10 min
Method: as §1
Into two glass vials (diameter 10 mm), 100 mg each of glass beads (diameter 1 mm) and 50 mg each of the mixture of hydrogenated egg phosphatidylcholine and cholesterol (55/45 mole %) existing as a solid solution was weighed. Into one vial, 75 μl of a 1 μM RNA-Cy3 solution (RNA: 27mer; 5′-GGA GCU CGC U T**C GGC GAG GUC GUG CCA-3′; T**=thymidine-C6-amino-NHS-Cy3; Cy3: fluorescence dye; Qiagen) was pipetted. Into the second vial, 75 μl of NaCl solution was added. The closed vials were subjected to speed mixing at 3540 rpm for 10 minutes each. The liposome gel loaded with RNA-Cy3 solution was redispersed with 250 μl of NaCl solution. […] In the supernatant, the relative concentrations of fluorescence-labeled RNA were subsequently determined by fluorescence spectroscopy (em: 565, ex; 515 nm), and the inclusion efficiency for RNA-Cy3 was calculated by dividing the values by one another (60.1%). The mean size of the redispersed vesicles was determined by means of PCS to be 127.8 nm. […]

Compound: Cn1c(CCCC(=O)O)nc2cc(N(CCCl)CCCl)ccc21 [bendamustine]
- inclusion efficiency for bendamustine [1]: 40.6±3.08%

- inclusion efficiency for gemcitabine ([2]; direct inclusion in VPG by speed mixing, 3540 rpm 20 min): 80.7%
- Inclusion efficiency ([2]; gemcitabine incorporated into prefabricated VPG by shaking (10 and 5 min)): 47%
- Inclusion efficiency ([2]; gemcitabine incorporated into prefabricated VPG by speed mixing (0.5 min)): 44%
Compound: Nc1ccn([C@@H]2O[C@H](CO)[C@@H](O)C2(F)F)c(=O)n1 [gemcitabine]
- inclusion efficiency for passive loading [3]: 43-47%

- inclusion efficiency for trypan blue in liposomes by speed mixing [4]: 51%
Compound: Cc1cc(-c2ccc(/N=N/c3c(S(=O)(=O)O)cc4cc(S(=O)(=O)O)cc(N)c4c3O)c(C)c2)ccc1/N=N/c1c(S(=O)(=O)O)cc2cc(S(=O)(=O)O)cc(N)c2c1O [trypan blue]

Compound: RNA-Cy3: fluorescence-labeled RNA 27mer 5′-GGA GCU CGC U T**C GGC GAG GUC GUG CCA-3′, T**=thymidine-C6-amino-NHS-Cy3 (Qiagen) (chain 1 GGAGCUCGCUT; chain 2 CGGCGAGGUCGUGCCA; Cy3 label on thymidine-C6-amino, chemistry not fully specified)
- mean size of the redispersed vesicles ([5]; RNA-Cy3-loaded negatively charged liposomes (hydrogenated egg PC/cholesterol/DPPG 46/33/20)): 238.1 nm
- mean size of the redispersed vesicles ([5]; RNA-Cy3-loaded neutral liposomes (hydrogenated egg PC/cholesterol 55/45)): 127.8 nm
- inclusion efficiency for RNA-Cy3 ([6]; negatively charged liposomes (hydrogenated egg PC/cholesterol/DPPG 46/33/20)): 82.9%
- inclusion efficiency for RNA-Cy3 ([6]; neutral liposomes (hydrogenated egg PC/cholesterol 55/45)): 60.1%

From patent US10662060B2, “Manufacture of lipid-based nanoparticles using a dual asymmetric centrifuge” (priority 2004, dated 2020)
